Common to all, as to assay: biochemical
Common to all, as to format: biochemical

For experiment [1], the target named is T1, 382 unique human kinases (Homo sapiens, UniProt Q6P5Z2).
T1 construct: purchased Reaction Biology (HotSpot contract assay)
To be noted: kinase PKN3/PRK3, compound 10 uM; for remaining activity at 10 µM: read-out: % Enzyme Activity (relative to DMSO controls).

Experiment [2] addresses T2, 382 unique human kinases (Homo sapiens, UniProt Q07002).
T2 construct: purchased Reaction Biology (HotSpot contract assay)
To be noted: CDK18/cyclin Y (PCTK3), compound at 10 uM, duplicate values; for remaining activity at 10 µM: read-out: % Enzyme Activity (relative to DMSO controls).

The target in experiment [3] is T3, 382 unique human kinases (Homo sapiens, UniProt Q8IVH8).
T3 construct: purchased Reaction Biology (HotSpot contract assay)
T3 sequence (Q8IVH8 1-894): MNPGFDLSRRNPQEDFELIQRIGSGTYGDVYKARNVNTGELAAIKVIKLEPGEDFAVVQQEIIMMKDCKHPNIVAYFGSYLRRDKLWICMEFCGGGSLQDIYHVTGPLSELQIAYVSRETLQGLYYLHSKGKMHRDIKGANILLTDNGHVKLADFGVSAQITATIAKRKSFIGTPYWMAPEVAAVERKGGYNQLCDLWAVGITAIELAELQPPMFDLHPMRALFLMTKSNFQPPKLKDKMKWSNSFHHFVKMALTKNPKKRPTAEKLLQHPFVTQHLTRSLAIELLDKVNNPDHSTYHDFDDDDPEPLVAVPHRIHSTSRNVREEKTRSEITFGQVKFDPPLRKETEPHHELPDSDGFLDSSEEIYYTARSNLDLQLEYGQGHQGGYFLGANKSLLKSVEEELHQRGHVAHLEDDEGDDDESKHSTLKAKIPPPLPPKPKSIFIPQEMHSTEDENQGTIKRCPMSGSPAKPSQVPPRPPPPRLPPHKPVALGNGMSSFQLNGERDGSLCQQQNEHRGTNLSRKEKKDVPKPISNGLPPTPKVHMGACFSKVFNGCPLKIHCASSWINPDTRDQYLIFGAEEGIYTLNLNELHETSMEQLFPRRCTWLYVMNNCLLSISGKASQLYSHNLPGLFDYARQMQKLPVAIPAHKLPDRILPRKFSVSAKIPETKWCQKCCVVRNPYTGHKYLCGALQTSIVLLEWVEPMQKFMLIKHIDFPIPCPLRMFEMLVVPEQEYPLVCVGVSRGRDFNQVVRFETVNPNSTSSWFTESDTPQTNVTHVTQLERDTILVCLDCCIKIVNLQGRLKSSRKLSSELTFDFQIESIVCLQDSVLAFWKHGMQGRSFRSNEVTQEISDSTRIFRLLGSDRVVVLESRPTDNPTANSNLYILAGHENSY
To be noted: kinase GLK/MAP4K3, compound 10 uM; for remaining activity at 10 µM: read-out: % Enzyme Activity (relative to DMSO controls).

Experiment [4] addresses T4, 382 unique human kinases (Homo sapiens, UniProt Q9Y243, E17K).
T4 construct: purchased Reaction Biology (HotSpot contract assay)
To be noted: AKT3 (E17K), 10 uM; for remaining activity at 10 µM: read-out: % Enzyme Activity (relative to DMSO controls).

In experiment [5] the target is T5, 382 unique human kinases (Homo sapiens, UniProt P29376).
T5 construct: purchased Reaction Biology (HotSpot contract assay)
T5 sequence (P29376 17-864): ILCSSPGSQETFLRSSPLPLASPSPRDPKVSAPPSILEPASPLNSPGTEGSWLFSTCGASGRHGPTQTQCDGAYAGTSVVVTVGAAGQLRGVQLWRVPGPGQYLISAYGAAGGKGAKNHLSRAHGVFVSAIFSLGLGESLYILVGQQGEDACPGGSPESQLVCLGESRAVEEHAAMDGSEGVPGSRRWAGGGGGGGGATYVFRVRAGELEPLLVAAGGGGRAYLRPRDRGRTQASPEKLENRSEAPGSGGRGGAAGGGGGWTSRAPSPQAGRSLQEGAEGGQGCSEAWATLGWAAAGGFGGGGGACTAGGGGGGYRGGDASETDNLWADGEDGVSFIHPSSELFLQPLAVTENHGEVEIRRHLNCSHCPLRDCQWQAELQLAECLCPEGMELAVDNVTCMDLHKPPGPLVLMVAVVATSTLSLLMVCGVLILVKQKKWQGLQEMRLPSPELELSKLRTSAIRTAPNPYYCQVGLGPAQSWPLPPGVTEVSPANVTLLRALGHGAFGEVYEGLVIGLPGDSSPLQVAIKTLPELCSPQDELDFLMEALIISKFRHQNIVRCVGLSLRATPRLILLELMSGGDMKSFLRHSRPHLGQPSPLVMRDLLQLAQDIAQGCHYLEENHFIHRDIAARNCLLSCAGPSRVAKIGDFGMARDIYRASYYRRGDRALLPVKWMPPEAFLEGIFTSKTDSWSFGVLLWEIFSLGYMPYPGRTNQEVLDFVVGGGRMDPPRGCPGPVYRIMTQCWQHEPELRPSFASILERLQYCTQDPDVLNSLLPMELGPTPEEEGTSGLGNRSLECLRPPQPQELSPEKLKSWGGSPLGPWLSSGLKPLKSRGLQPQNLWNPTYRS
To be noted: TYK1/LTK, 10 uM; for remaining activity at 10 µM: read-out: % Enzyme Activity (relative to DMSO controls).

Experiment [6] deals with T6, 382 unique human kinases (Homo sapiens, UniProt P36888).
T6 construct: purchased Reaction Biology (HotSpot contract assay)
T6 sequence (P36888 27-993): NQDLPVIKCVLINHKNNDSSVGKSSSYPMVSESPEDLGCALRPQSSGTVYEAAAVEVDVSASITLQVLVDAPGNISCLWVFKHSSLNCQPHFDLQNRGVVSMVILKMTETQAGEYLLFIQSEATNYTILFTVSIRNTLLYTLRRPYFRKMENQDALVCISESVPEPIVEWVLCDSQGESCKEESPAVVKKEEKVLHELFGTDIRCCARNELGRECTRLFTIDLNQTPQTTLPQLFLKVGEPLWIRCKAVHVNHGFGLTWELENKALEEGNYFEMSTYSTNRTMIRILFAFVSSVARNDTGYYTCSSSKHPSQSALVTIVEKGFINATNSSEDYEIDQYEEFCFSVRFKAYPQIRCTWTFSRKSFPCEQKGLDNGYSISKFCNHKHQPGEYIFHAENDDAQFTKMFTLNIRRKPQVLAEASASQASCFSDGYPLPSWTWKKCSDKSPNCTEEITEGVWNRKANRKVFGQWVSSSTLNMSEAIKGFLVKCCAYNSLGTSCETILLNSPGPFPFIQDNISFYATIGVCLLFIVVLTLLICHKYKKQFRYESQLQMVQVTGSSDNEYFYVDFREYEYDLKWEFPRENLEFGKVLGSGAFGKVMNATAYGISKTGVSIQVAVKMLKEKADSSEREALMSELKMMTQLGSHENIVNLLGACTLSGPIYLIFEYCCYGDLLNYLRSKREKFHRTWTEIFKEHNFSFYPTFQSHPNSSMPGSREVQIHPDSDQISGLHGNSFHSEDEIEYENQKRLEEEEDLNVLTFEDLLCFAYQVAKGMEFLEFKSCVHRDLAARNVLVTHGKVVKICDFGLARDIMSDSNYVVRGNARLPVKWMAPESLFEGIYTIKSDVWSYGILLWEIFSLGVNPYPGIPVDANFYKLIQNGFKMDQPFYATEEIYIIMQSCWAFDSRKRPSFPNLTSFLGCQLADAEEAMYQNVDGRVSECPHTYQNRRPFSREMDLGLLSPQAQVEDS
To be noted: FLT3, [ATP] 50 µM, compound 10 uM; for remaining activity at 10 µM: read-out: % Enzyme Activity (relative to DMSO controls).

Experiment [7] deals with T7, 382 unique human kinases (Homo sapiens, UniProt P28482).
T7 construct: purchased Reaction Biology (HotSpot contract assay)
T7 sequence (P28482 whole entry): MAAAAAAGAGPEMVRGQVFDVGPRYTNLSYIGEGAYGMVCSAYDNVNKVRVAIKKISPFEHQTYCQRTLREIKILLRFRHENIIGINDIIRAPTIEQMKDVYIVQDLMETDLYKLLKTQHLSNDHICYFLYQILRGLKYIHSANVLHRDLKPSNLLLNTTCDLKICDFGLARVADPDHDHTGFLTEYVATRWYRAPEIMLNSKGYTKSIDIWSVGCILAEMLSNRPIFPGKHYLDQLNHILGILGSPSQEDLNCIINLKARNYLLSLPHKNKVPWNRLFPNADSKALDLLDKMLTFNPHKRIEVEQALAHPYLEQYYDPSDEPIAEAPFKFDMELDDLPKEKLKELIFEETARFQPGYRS
To be noted: ERK2/MAPK1, 10 uM; for remaining activity at 10 µM: read-out: % Enzyme Activity (relative to DMSO controls).

Results on four molecules are retold here after article PMC8550792, “Evolution of kinase polypharmacology across HSP90 drug discovery” (Cell Chemical Biology, 2021).

T4 sequence (Q9Y243 whole entry E17K): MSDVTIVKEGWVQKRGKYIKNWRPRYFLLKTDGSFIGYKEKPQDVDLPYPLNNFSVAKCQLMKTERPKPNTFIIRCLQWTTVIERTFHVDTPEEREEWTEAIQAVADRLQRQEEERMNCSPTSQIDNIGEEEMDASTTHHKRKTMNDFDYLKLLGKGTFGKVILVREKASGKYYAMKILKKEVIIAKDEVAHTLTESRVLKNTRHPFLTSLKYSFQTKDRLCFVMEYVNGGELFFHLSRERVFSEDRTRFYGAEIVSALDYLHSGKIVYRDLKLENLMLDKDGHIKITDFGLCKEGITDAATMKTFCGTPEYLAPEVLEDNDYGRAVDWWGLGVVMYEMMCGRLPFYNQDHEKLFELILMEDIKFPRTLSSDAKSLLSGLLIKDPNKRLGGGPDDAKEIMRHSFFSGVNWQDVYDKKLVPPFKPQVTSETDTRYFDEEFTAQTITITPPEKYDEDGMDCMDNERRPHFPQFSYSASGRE
T1 sequence (Q6P5Z2 whole entry): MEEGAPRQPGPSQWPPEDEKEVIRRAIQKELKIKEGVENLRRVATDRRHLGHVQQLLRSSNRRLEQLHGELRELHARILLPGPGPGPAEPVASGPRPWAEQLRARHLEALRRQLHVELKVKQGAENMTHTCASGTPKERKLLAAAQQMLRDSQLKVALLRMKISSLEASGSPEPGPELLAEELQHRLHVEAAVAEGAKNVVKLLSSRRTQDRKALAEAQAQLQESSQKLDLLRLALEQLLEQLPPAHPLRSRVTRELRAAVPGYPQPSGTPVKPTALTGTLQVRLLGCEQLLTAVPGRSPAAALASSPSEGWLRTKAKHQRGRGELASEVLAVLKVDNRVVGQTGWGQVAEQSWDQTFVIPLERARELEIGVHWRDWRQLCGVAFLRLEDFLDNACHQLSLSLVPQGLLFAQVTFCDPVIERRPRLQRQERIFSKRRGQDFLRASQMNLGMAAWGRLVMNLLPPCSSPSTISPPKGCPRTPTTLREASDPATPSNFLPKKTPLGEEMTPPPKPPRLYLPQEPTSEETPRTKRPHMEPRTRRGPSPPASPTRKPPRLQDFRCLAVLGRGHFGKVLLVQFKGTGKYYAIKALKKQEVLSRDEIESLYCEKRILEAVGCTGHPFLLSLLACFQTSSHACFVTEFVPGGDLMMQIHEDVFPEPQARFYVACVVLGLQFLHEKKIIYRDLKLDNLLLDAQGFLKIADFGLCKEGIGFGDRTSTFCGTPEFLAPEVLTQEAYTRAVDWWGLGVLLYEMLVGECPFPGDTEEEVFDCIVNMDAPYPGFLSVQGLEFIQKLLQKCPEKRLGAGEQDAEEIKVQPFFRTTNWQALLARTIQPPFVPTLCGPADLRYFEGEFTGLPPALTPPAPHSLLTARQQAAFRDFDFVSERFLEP
T2 sequence (Q07002 whole entry): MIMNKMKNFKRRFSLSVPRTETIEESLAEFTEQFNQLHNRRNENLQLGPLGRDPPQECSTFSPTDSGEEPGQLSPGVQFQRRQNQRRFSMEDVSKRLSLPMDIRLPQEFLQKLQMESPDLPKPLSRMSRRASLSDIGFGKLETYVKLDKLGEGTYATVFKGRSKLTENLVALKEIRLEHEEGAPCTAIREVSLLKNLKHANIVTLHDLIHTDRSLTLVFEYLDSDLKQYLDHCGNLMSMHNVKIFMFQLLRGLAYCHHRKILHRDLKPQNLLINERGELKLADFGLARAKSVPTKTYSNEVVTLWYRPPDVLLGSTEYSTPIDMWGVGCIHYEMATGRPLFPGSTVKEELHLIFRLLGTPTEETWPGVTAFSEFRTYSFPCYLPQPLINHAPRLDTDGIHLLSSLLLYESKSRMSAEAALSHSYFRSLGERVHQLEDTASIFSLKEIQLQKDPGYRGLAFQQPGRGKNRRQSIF

Take `CC(C)c1cc(-c2n[nH]c(=O)n2-c2ccc3c(ccn3C)c2)c(O)cc1O` [Ganetespib (STA9090)]: the remaining activity at 10 µM in experiment [1] was determined as 83.9%; in experiment [2], 107%; in experiment [3], 89.8%; in experiment [4] it was 77.7%; in experiment [5], 73.6%.
Consider `CC(C)c1cc(-c2n[nH]c(=O)n2-c2ccc3c(ccn3C)c2)c(O)cc1O` [Ganetespib], for which the remaining activity at 10 µM in experiment [6] turned out to be 30.4%; in experiment [7], 106%.
Turning to `CCNC(=O)c1noc(-c2cc(C(C)C)c(O)cc2O)c1-c1ccc(CN2CCOCC2)cc1` [Luminespib (AUY-922)], the “% Enzyme Activity (relative to DMSO controls)” value is listed as 102.60% in experiment [1]; 109.58% in experiment [2]; 86.46% in experiment [3]; 79.36% in experiment [4]; 97.76% in experiment [5]. Also, the remaining activity at 10 µM in experiment [1] was 104%; in experiment [2], 111%; in experiment [3], 87.1%; in experiment [4], 84.2%; in experiment [5] it was 98.2%.
For the molecule `CCNC(=O)c1noc(-c2cc(C(C)C)c(O)cc2O)c1-c1ccc(CN2CCOCC2)cc1` [Luminespib], in experiment [6], the “% Enzyme Activity (relative to DMSO controls)” value was 80.03% and the remaining activity at 10 µM is 80.1%. Also, in experiment [7], the “% Enzyme Activity (relative to DMSO controls)” value turned out to be 93.52% and the remaining activity at 10 µM came to 94.6%.
